The record followed here is ChEMBL document CHEMBL5500371, “Arginine and tryptophan-rich dendritic antimicrobial peptides that disrupt membranes for bacterial infection in vivo” (Eur J Med Chem, 2024).

Data set [1] concerns Staphylococcus aureus. Description: Synergistic antibacterial activity against gentamicin resistant Staphylococcus aureus ATCC 25923 assessed as fractional inhibitory concentration index at 0.25 to 4 times MIC incubated for 20 hrs in presence of gentamicin by checkerboard assay. The data set is classed as functional.
The subject of data set [2] is Staphylococcus aureus. Description: Antibacterial activity against Staphylococcus aureus ATCC 25923 assessed as inhibition of bacterial growth incubated for 20 hrs in presence of MgCl2 by broth microdilution method (reference value: 8 microM). The data set is classed as functional. For orientation: Broth dilution looks for growth in wells or tubes with falling amounts of substance.

For data set [3], the system named is Staphylococcus aureus. Kind of data set: Antibacterial activity against Staphylococcus aureus ATCC 25923 assessed as inhibition of bacterial growth incubated for 20 hrs in presence of FeCl3 by broth microdilution method (reference value: 8 microM). The data set is classed as functional.
Data set [4] deals with Escherichia coli. Kind of data set: Antibacterial activity against Escherichia coli ATCC 25922 assessed as inhibition of bacterial growth incubated for 20 hrs in presence of NaCl by broth microdilution method (reference value: 8 microM). The data set is classed as functional.
The test system of data set [5] is Escherichia coli. Kind of data set: Antibacterial activity against Escherichia coli ATCC 25922 assessed as inhibition of bacterial growth incubated for 20 hrs in presence of KCl by broth microdilution method (reference value: 8 microM). The data set is classed as functional.
The subject of data set [6] is Staphylococcus aureus. Description: Synergistic antibacterial activity against Staphylococcus aureus ATCC 25923 assessed as fractional inhibitory concentration index at 0.25 to 4 times MIC incubated for 20 hrs in presence of rifampicin by checkerboard assay. The class given is functional.
Data set [7] can be described thus: Systemic toxicity in male BALB/c mouse assessed as renal cell necrosis at 105.41 mg/kg, ip administered as single dose by H and E staining based analysis. The class given is organism-based. As to conditions: in vivo.
Data set [8] concerns Staphylococcus aureus. Kind of data set: Synergistic antibacterial activity against rifampicin resistant Staphylococcus aureus ATCC 25923 assessed as fractional inhibitory concentration index at 0.25 to 4 times MIC incubated for 20 hrs in presence of rifampicin by checkerboard assay. The data set is classed as functional.
In data set [9] the test system is Cell membrane. Description: Induction of cell membrane damage in Escherichia coli assessed as increase in PI uptake at 2 times MIC measured after 2 hrs by PI dye based flow cytometry analysis. The data set is classed as cell membranes. A general note: In flow cytometry, cells or beads pass a laser one at a time.
Data set [10] in a line: Systemic toxicity in male BALB/c mouse assessed as lung inflammatory cell infiltration at 105.41 mg/kg, ip administered as single dose by H and E staining based analysis. As to conditions: in vivo. The data set is classed as organism-based.
In data set [11] the test system is Cell membrane. Kind of data set: Induction of inner membrane permeabilization in Escherichia coli ML-35 ATCC 43837 at 0.5 to 4 times MIC by ONPG reagent based microplate reader analysis. The following applies: time 0-135 min, TDE = time-dependent effect.
The nature of data set [12]: Acute toxicity in male BALB/c mouse assessed as torpid movement at 80 to 130 mg/kg, ip administered as single dose and measured after 3 days. The data set is classed as organism-based. As to conditions: in vivo, 72 h, dose 80-130 mg/kg, time 3 day.
The nature of data set [13]: Systemic toxicity in male BALB/c mouse assessed as hepatocyte hemorrhage at 105.41 mg/kg, ip administered as single dose by H and E staining based analysis. The class given is organism-based. The following applies: hepatocytes.
For data set [14], the system named is Escherichia coli. Kind of data set: Antibacterial activity against Escherichia coli ATCC 25922 assessed as inhibition of bacterial growth incubated for 20 hrs in presence of ZnCl2 by broth microdilution method (reference value: 8 microM). The data set is classed as functional.
Data set [15] has as its system Escherichia coli. Kind of data set: Antibacterial activity against Escherichia coli ATCC 25922 assessed as inhibition of bacterial growth incubated for 20 hrs in presence of NaCl by broth microdilution method (reference value: 16 microM). The class given is functional.
Data set [16] deals with Escherichia coli. Kind of data set: Antibacterial activity against Escherichia coli ATCC 25922 assessed as inhibition of bacterial growth incubated for 20 hrs in presence of MgCl2 by broth microdilution method (reference value: 16 microM). The class given is functional.
Data set [17] deals with Escherichia coli. Kind of data set: Antibacterial activity against Escherichia coli ATCC 25922 assessed as inhibition of bacterial growth incubated for 20 hrs in presence of KCl by broth microdilution method (reference value: 16 microM). The class given is functional.
Data set [18] has as its system Escherichia coli. Description: Additive antibacterial activity against Escherichia coli ATCC 25922 assessed as fractional inhibitory concentration index at 0.25 to 4 times MIC incubated for 20 hrs in presence of rifampicin by checkerboard assay. The data set is classed as functional.
Data set [19] relates to Staphylococcus aureus. Description: Antibacterial activity against Staphylococcus aureus ATCC 25923 assessed as inhibition of bacterial growth upto 200 ug/ml pretreated with trypsin for 6 hrs and measured after 18 hrs by absorbance based method. The class given is functional, organism-based. The following applies: dose <= 200.0 µg/ml, time 24.0 hrs.
The nature of data set [20]: Systemic toxicity in male BALB/c mouse assessed as hepatocyte hemorrhage at 109.31 mg/kg, ip administered as single dose by H and E staining based analysis. The data set is classed as organism-based. The following applies: hepatocytes.
The subject of data set [21] is Cell membrane. Description: Induction of cell membrane damage in Staphylococcus aureus assessed as PI uptake at 2 times MIC measured after 2 hrs by PI dye based flow cytometry analysis (reference value: 28.8%). The class given is cell membranes.
For data set [22], the system named is Staphylococcus aureus. Kind of data set: Additive antibacterial activity against Staphylococcus aureus ATCC 25923 assessed as fractional inhibitory concentration index at 0.25 to 4 times MIC incubated for 20 hrs in presence of rifampicin by checkerboard assay. The data set is classed as functional, organism-based.
Data set [23] relates to Escherichia coli. Description: […] activity against Escherichia coli ATCC 25922 infected in male BALB/c pulmonary infection model assessed as reduction in inflammatory cell infiltration at 10 mg/kg, ip administered at 3 and 12 hrs post infection and measured 24 hrs post infection by H and E staining based analysis. The data set is classed as functional, organism-based. As to conditions: time 12-21 hrs.

Data set [24] deals with Escherichia coli. Kind of data set: Synergistic antibacterial activity against rifampicin resistant Escherichia coli ATCC 25922 assessed as fractional inhibitory concentration index at 0.25 to 4 times MIC incubated for 20 hrs in presence of rifampicin by checkerboard assay. The data set is classed as functional, organism-based.
For data set [25], the system named is Escherichia coli. Kind of data set: […] activity against Escherichia coli ATCC 25922 infected in male BALB/c pulmonary infection model assessed as reduction in liver bleeding at 10 mg/kg, ip administered at 3 and 12 hrs post infection and measured 24 hrs post infection by H and E staining based analysis. The class given is functional, organism-based. The following applies: time 12-21 hrs.

The subject of data set [26] is Staphylococcus aureus. Kind of data set: Bactericidal activity against Staphylococcus aureus ATCC 25923 assessed as elimination of bacteria at 2 times MIC measured after >6 hrs by time kill assay. The data set is classed as functional, organism-based.
Data set [27] relates to Escherichia coli. Description: Synergistic antibacterial activity against Escherichia coli ATCC 25922 assessed as fractional inhibitory concentration index at 0.25 to 4 times MIC incubated for 20 hrs in presence of gentamicin by checkerboard assay. The data set is classed as functional, organism-based.
Data set [28] has as its system Cell membrane. Kind of data set: Induction of cytoplasmic membrane depolarization in Staphylococcus aureus assessed as increase in fluorescence intensity at 0.5 to 4 times MIC measured upto 13 mins by DISC3-5 dye based fluorescence analysis.
In data set [29] the test system is Escherichia coli. Description: […] activity against Escherichia coli ATCC 25922 infected in male BALB/c pulmonary infection model assessed as reduction in lung inflammation at 10 mg/kg, ip administered at 3 and 12 hrs post infection and measured 24 hrs post infection by H and E staining based analysis. The data set is classed as functional, organism-based. As to conditions: time 12-21 hrs.

Data set [30] deals with Escherichia coli. Description: Antibacterial activity against Escherichia coli ATCC 25922 assessed as inhibition of bacterial growth incubated for 20 hrs in presence of KCl by broth microdilution method (reference value: 4 microM). The data set is classed as functional, organism-based.
The test system of data set [31] is Escherichia coli. Kind of data set: Synergistic antibacterial activity against Escherichia coli ATCC 25922 assessed as fractional inhibitory concentration index at 0.25 to 4 times MIC incubated for 20 hrs in presence of vancomycin by checkerboard assay. The class given is functional, organism-based.
Data set [32] deals with Escherichia coli. Kind of data set: Synergistic antibacterial activity against Escherichia coli ATCC 25922 assessed as fractional inhibitory concentration index at 0.25 to 4 times MIC incubated for 20 hrs in presence of rifampicin by checkerboard assay. The data set is classed as functional, organism-based.

The source made the active and inactive calls. Where a SMILES comes first, the peptide text is derived from it. Side-chain parts run from the residue outwards.

As to `N=C(N)NCCC[C@H](NC(=O)[C@H](CCCNC(=N)N)NC(=O)[C@H](CCCNC(=N)N)NC(=O)[C@@H](N)CCCNC(=N)N)C(=O)N[C@@H](CCCCN)C(=O)N[C@@H](Cc1c[nH]c2ccccc12)C(=O)N[C@@H](Cc1c[nH]c2ccccc12)C(=O)N[C@@H](Cc1c[nH]c2ccccc12)C(=O)N[C@@H](Cc1c[nH]c2ccccc12)C(N)=O`, the “fractional inhibitory concentration index (FICI)” value with Staphylococcus aureus [1] stood at 0.5; in the data set on Staphylococcus aureus [6], 0.375; in the data set on Staphylococcus aureus [8], 0.5. Moreover, the MIC in the data set on Staphylococcus aureus [2] is 16 µM; in the data set with Staphylococcus aureus [3], 8 µM; in the data set with Escherichia coli [4] it was 16 µM; with Escherichia coli [5], 16 µM; in the data set with Escherichia coli [14], 8 µM. In addition, the Activity entry in data set [7] is “Non-Toxic”; in data set [10], “Non-Toxic”; with Cell membrane [11] it was “Tde”; in data set [12], “Toxic”; in [13] it was “Non-Toxic”. Moreover, the outcome in the data set on Cell membrane [9] was inactive.
As to `N=C(N)NCCC[C@H](NC(=O)[C@@H](N)CCCNC(=N)N)C(=O)NCCCC[C@H](NC(=O)[C@H](CCCNC(=N)N)NC(=O)[C@@H](N)CCCNC(=N)N)C(=O)N[C@@H](Cc1c[nH]c2ccccc12)C(=O)N[C@@H](Cc1c[nH]c2ccccc12)C(=O)N[C@@H](Cc1c[nH]c2ccccc12)C(=O)N[C@@H](Cc1c[nH]c2ccccc12)C(N)=O` (H-RRK([Arg-Arg])WWWW-NH2), the MIC in the data set on Escherichia coli [15] worked out at 32 µM; in the data set with Escherichia coli [16], 16 µM; with Escherichia coli [17], 16 µM. The results for the “fractional inhibitory concentration index (FICI)” value with Escherichia coli [18] and in the data set on Staphylococcus aureus [6] were 0.563 and 0.375, respectively. Moreover, the result in the data set on Cell membrane [9] was inactive. Also, the outcome with Staphylococcus aureus [19] was Active. In addition, the Activity entry in the data set on Cell membrane [11] was “Tde”; in data set [12], “Toxic”; in [20], “Non-Toxic”.
As to POLYMYXIN B, the Activity in the data set with Cell membrane [21] stood at 76.2%; with Staphylococcus aureus [26] it was 100%. In addition, the fractional inhibitory concentration index (FICI) in the data set on Staphylococcus aureus [22] came out at 0.563; in the data set with Escherichia coli [24] it was 0.313; in the data set on Escherichia coli [27], 0.313; in the data set on Staphylococcus aureus [8], 0.5; in the data set on Escherichia coli [31], 0.313; in the data set with Escherichia coli [32] it was 0.313. Besides, the result in the data set with Escherichia coli [23], in the data set with Escherichia coli [25], in the data set with Cell membrane [28] and with Escherichia coli [29] was inactive. Besides, the MIC with Escherichia coli [30] came to 4 µM.

One may read the MIC as the smallest concentration in the dilution series that meets the test's criterion for growth inhibition.
